BindingDB's records for doi:10.1016/0014-5793(95)01389-x (Max-Planck-Institut, 1995)

Target: 5-hydroxytryptamine receptor 5A (Mus musculus, UniProt P30966)
Sequence (P30966 whole entry): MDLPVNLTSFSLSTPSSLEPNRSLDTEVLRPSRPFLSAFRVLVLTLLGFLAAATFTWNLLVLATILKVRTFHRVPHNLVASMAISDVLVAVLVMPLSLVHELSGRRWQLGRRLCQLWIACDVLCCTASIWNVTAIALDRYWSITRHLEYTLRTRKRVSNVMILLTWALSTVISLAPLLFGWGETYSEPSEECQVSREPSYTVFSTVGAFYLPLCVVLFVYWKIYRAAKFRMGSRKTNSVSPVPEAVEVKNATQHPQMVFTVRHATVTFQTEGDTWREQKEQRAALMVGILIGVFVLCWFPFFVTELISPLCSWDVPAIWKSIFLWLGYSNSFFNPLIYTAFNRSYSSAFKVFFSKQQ

Row | SMILES | Ki [nM]
1 | CN(C)CCc1c[nH]c2ccc(O)cc12 [3-[2-(dimethylamino)ethyl]indol-5-ol] | 2900
2 | CN1CC(C(=O)O)C=C2c3cccc4[nH]cc(c34)CC21 (centres undefined) [NSC_622688] | 2000
3 | CN1C[C@H](C(=O)N[C@]2(C)O[C@@]3(O)[C@@H]4CCCN4C(=O)[C@H](Cc4ccccc4)N3C2=O)C=C2c3cccc4[nH]cc(c34)C[C@H]21 [12'-hydroxy-2'-methyl-5'alpha-(phenylmethyl)ergotaman-3',6',18-trione] | 38
4 | CC[C@@H](CO)NC(=O)[C@@H]1C=C2c3cccc4c3c(cn4C)C[C@H]2N(C)C1 | 500
